{"source": "patent US11865129B2", "about": "“Application of anemoside B4 in preparation of a drug for treatment or prevention of psoriasis” (GUANGXI XINHAI PHARMACEUTICAL TECHNOLOGY CO., LTD., priority 2021, dated 2024)", "key": {"[1]": {"tested_on": "IL-1β", "experiment": "IL-1β level in skin tissue, psoriasis model mice", "format": "in vivo, BALB/c male mice", "settings": "12 days, compared with model control group", "description": "(§1) A shaving area on the back of the mice in each group is 2.5 cm×3 cm, and the vellus is removed with mild depilatory cream. The mice of each group except the blank control group are modeled by administrating 62.5 mg 5% imiquimod cream on the shaving area until the skin is thickened and has erythema and silver scales for modeling completely. During the model establishment, 5% imiquimod cream is administrated once a day, and continuously administrated for 14 days. On the third day, the model establishment is continued and drugs are administered at the same time, wherein the mice in the AC intragastric administration group (8 mg/kg), the anemoside B4 intragastric (i.g.) administration group (5 mg/kg), the anemoside B4 intragastric administration group (10 mg/kg), and the anemoside B4 intragastric administration group (20 mg/kg) are administrated once a day, and continuously administrated for 12 days. […] The mice in the blank control group and the model control group are applied 62.5 mg Vaseline to the skin lesions once a day, and continuously applied for 12 days. The weight of the mice is recorded for counting the weight change of the mice. 100 mg skin tissue of the mice in each group of the first animal group are precisely weighed, added 0.9 mL ice normal saline, homogenized with the tissue grinder, and centrifuged at 4° C. and 3000 rpm for 10 min. The supernatant is collected, and IL-12, IL-17, IL-6 and IL-1β level in the skin tissue are measured by kits according to the procedures of specification."}, "[2]": {"tested_on": "IL-6", "experiment": "IL-6 level in skin tissue, psoriasis model mice", "format": "in vivo, BALB/c male mice", "settings": "12 days, compared with model control group", "description": "as §1"}, "[3]": {"tested_on": "VEGF", "experiment": "VEGF level in serum by ELISA, psoriasis model rats", "format": "in vivo, SD male rats", "settings": "7 days, vs model control group", "description": "(§2) 60 SPF-grade SD male rats in the second animal group are divided into 6 groups: a blank control group, a model control group, an anemoside B4 intragastric administration group (5 mg/kg), an anemoside B4 intragastric administration group (10 mg/kg), an anemoside B4 intragastric administration group (20 mg/kg), and an acitretin intragastric administration group (5 mg/kg), and are respectively expressed into the blank control group, the model group, anemoside B4 5 mg/kg, anemoside B4 10 mg/kg, anemoside B4 20 mg/kg, and acitretin 5 mg/kg in FIGS. 3, 4 and 5 for convenience. A shaving area on the back of the rats in each group is 2.5 cm×3 cm, and the vellus is removed with mild depilatory cream. The rats of each group except the blank control group are modeled by administrating 62.5 mg 5% imiquimod cream on the shaving area until the skin is thickened and has erythema and silver scales for modeling completely.\n(§3) 5% imiquimod cream is administrated once a day, and continuously administrated for 8 days for model establishment. On the second day, the rats in each group are continuously intragastric (i.g.) administered drugs for 7 days.\n(§4) After administration, blood is taken from abdominal aorta of the rats in each group of the second animal group, centrifuged to collect the serum, and measured the M-CSF, VEGF, IL-6 and IL-17 level in the serum by ELISA kits according to the procedures of specification."}, "[4]": {"tested_on": "M-CSF", "experiment": "M-CSF level in serum by ELISA, psoriasis model rats", "format": "in vivo, SD male rats", "settings": "7 days, vs model control group", "description": "as §2, §3, §4"}, "[5]": {"tested_on": "spleen", "experiment": "Spleen coefficient, psoriasis model mice", "format": "in vivo, BALB/c male mice", "settings": "12 days, compared with model control group", "description": "(§5) A shaving area on the back of the mice in each group is 2.5 cm×3 cm, and the vellus is removed with mild depilatory cream. The mice of each group except the blank control group are modeled by administrating 62.5 mg 5% imiquimod cream on the shaving area until the skin is thickened and has erythema and silver scales for modeling completely. During the model establishment, 5% imiquimod cream is administrated once a day, and continuously administrated for 14 days. On the third day, the model establishment is continued and drugs are administered at the same time, wherein the mice in the AC intragastric administration group (8 mg/kg), the anemoside B4 intragastric (i.g.) administration group (5 mg/kg), the anemoside B4 intragastric administration group (10 mg/kg), and the anemoside B4 intragastric administration group (20 mg/kg) are administrated once a day, and continuously administrated for 12 days. […] The mice in the blank control group and the model control group are applied 62.5 mg Vaseline to the skin lesions once a day, and continuously applied for 12 days. The weight of the mice is recorded for counting the weight change of the mice. After blood collection of the mice in each group of the first animal group, the mice are killed by dislocation of cervical vertebra, quickly separated the spleen and weighed to obtain the wet weight of the spleen, recording and calculating the spleen coefficient, wherein the spleen coefficient (%)=(spleen wet weight/body weight)×100%."}, "[6]": {"tested_on": "psoriasis skin lesions", "experiment": "Histopathological observation of skin (HE staining), psoriasis model mice", "format": "in vivo, BALB/c male mice", "settings": "12 days", "description": "as §5, with “vertebra,” for “vertebra, quickly”, “skin in the skin lesions,” for “spleen”, “removed subcutaneous fat. Taking a part, fixing it with 4% paraformaldehyde, embedding, obtaining section, dying with hematoxylin and eosin (HE), and observing histopathological changes” for “weighed to obtain the wet weight”, “skin under a light microscope.” for “spleen, recording and calculating the spleen coefficient, wherein the spleen coefficient (%)=(spleen wet weight/body weight)×100%.”"}, "[7]": {"settings": "intragastric 5 mg/kg once a day"}, "[8]": {"settings": "intragastric 10 mg/kg once a day"}, "[9]": {"settings": "intragastric 20 mg/kg once a day"}}}
{"smiles": "C=C(C)[C@@H]1CC[C@]2(C(=O)O[C@@H]3O[C@H](CO[C@@H]4O[C@H](CO)[C@@H](O[C@@H]5O[C@@H](C)[C@H](O)[C@@H](O)[C@H]5O)[C@H](O)[C@H]4O)[C@@H](O)[C@H](O)[C@H]3O)CC[C@]3(C)[C@H](CC[C@@H]4[C@@]5(C)CC[C@H](O[C@@H]6OC[C@H](O)[C@H](O)[C@H]6O[C@@H]6O[C@@H](C)[C@H](O)[C@@H](O)[C@H]6O)[C@@](C)(CO)[C@@H]5CC[C@]43C)[C@H]12", "note": "[anemoside B4]", "values": [{"measurement": "level of IL-1β in the skin tissue", "setting": "[1]; [7]", "value": "significantly reduced"}, {"measurement": "level of IL-1β in the skin tissue", "setting": "[1]; [8]", "value": "significantly reduced"}, {"measurement": "level of IL-1β in the skin tissue", "setting": "[1]; [9]", "value": "significantly reduced"}, {"measurement": "level of IL-6 in the skin tissue", "setting": "[2]; [7]", "value": "significantly reduced"}, {"measurement": "level of IL-6 in the skin tissue", "setting": "[2]; [8]", "value": "significantly reduced"}, {"measurement": "level of IL-6 in the skin tissue", "setting": "[2]; [9]", "value": "significantly reduced"}, {"measurement": "VEGF level in serum", "setting": "[3]; intragastric 5 mg/kg", "value": "significantly decreased"}, {"measurement": "VEGF level in serum", "setting": "[3]; intragastric 10 mg/kg", "value": "significantly decreased"}, {"measurement": "VEGF level in serum", "setting": "[3]; intragastric 20 mg/kg", "value": "significantly decreased"}, {"measurement": "M-CSF level in serum", "setting": "[4]; intragastric 5 mg/kg", "value": "significantly decreased"}, {"measurement": "M-CSF level in serum", "setting": "[4]; intragastric 10 mg/kg", "value": "significantly decreased"}, {"measurement": "M-CSF level in serum", "setting": "[4]; intragastric 20 mg/kg", "value": "significantly decreased"}, {"measurement": "enlargement of the spleen", "setting": "[5]; [7]", "value": "significantly relieved"}, {"measurement": "spleen coefficient", "setting": "[5]; [7]", "value": "significantly decreased"}, {"measurement": "enlargement of the spleen", "setting": "[5]; [8]", "value": "significantly relieved"}, {"measurement": "spleen coefficient", "setting": "[5]; [8]", "value": "significantly decreased"}, {"measurement": "enlargement of the spleen", "setting": "[5]; [9]", "value": "significantly relieved"}, {"measurement": "spleen coefficient", "setting": "[5]; [9]", "value": "significantly decreased"}, {"measurement": "psoriasis skin lesions, HE staining of skin tissue", "setting": "[6]; [7]", "value": "significantly improved"}, {"measurement": "psoriasis skin lesions, HE staining of skin tissue", "setting": "[6]; [8]", "value": "significantly improved"}, {"measurement": "psoriasis skin lesions, HE staining of skin tissue", "setting": "[6]; [9]", "value": "significantly improved"}]}
